The subject of one series is erythrocytes. Kind of series: Red blood cell morphology (phase-contrast microscopy). Type of series: cell-based. As to conditions: 2% erythrocyte suspension, 37 °C, 1 h, phase contrast 400×. On the procedure:
Studies on erythrocyte morphology complement the erythrotoxicity studies because they provide information on potential immediate interactions of the tested compounds with the erythrocyte lipid bilayer, and the possibility of creating pathological forms of erythrocytes, which are not able to carry oxygen. The effects of the synthesized compounds, and the two reference compounds chromanone and flavanone, on the morphology of erythrocytes is shown in Figure 6. Briefly, 2% RBC suspension was incubated with 0.9% NaCl (control samples) or tested compounds at various concentrations corresponding to their activity towards cancer cell lines.
A 2% erythrocyte suspension was incubated at 37 °C for one hour with various concentrations of synthesized compounds. The morphology of the RBCs was examined by means of a phase contrast Opta-Tech inverted microscope, at 400× magnification, equipped with software (OptaView 7) for image analysis.

Series [1] is described as follows: Lipophilicity (logP) by RP-TLC. As to conditions: RP-18 F254S TLC plates.
The next series deals with NALM-6 cells. Kind of series: MTT cytotoxicity assay, NALM-6. Type of series: cell-based, human. As to conditions: Homo sapiens, NALM-6, 48 h, MTT, 46 h + 2 h incubation. On the procedure: The first stage of the study used the MTT viability test to determine the cytotoxicity of ten compounds, i.e., 3-arylidenechromanone, 3-arylideneflavanone, spirochromanone and spiro- flavanone analogues, against four human cancer cell lines: HL-60, NALM-6, WM-115 and COLO-205.
Cytotoxicity was tested against human skin melanoma cells (WM-115, ECACC, Salisbury, UK), two human leukemia cell lines, viz. promyelocytic leukemia (HL-60) and lymphoblastic leukemia (NALM-6), and human colon adenocarcinoma cells (COLO-205). The cell lines COLO-205, WM-115 and HL-60 used in this work came from the ATCC American Type Culture Collection (Manassas, VA, USA), whereas the NALM-6 cell line was purchased from the German Collection of Microorganisms and Cell Cultures (Braunschweig, Germany). The leukaemia cells and colon adenocarcinoma were cultured in RPMI 1640 medium (Invitrogen, Grand Island, NY, USA) supplemented with 10% fetal bovine serum (FBS; Invitrogen) and gentamicin (25 µg/mL; KRKA, Novo Mesto, Slovenia). For melanoma WM-115 cells, Dulbecco’s minimal essential medium (DMEM; Invitrogen) was used. All cell lines were cultured at 37 °C in a humidified atmosphere of 5% CO2 in air.
For all experiments, the studied compounds were dissolved in DMSO (Sigma-Aldrich) and were further diluted in culture medium to obtain <0.1% DMSO concentration. In each experiment, controls with and without 0.1% DMSO were performed. The cytotoxicity of all compounds and of the reference compounds 4-chromanone and 3-benzylideneflavanone was determined by the MTT assay, i.e., 3-(4,5-dimethylthiazol-2-yl)-2,5-diphenyltetrazolium bromide (Sigma, St. Louis, MO, USA), which measures cellular dehydrogenase activity. Exponentially growing cells were seeded a day before the experiment onto a 96-well microplates (Nunc, Roskilde, Denmark) at a density up to 6–8 × 10^3 cells/well (depending on the cell line). Subsequently, various concentrations of the studied compounds freshly prepared in DMSO and diluted with complete culture medium were added. All compounds were tested for their cytotoxicity at a final concentration of 10^−7–10^−3 M. After 46 h of incubation with the studied compounds, the cells were treated with the MTT reagent and incubation was continued for another two hours. MTT – formazan crystals were dissolved in 20% sodium dodecyl sulphate (SDS, Sigma-Aldrich) and 50% DMF (Sigma-Aldrich) at pH 4.7; following this, absorbance was read at 570 nm on a multifunctional Victor ELISA-plate reader (Perkin Elmer, Turku, Finland). The IC50 values, i.e., the concentration of the test compound required to reduce the cell survival fraction to 50% of controls, were calculated from concentration-response curves and used as a measure of the sensitivity of the cells to a given treatment. As a control, cultured cells were grown in the absence of drugs. The data points represent the means of at least five to ten repeats ± standard deviation (S.D.).

In general, chromatographic logP refers to lipophilicity estimated from chromatographic retention. A low value points to lower lipophilicity. As a reminder, the IC50 is the midpoint of a concentration-inhibition curve. On to `O=C1/C(=C/c2ccccc2)COc2ccccc21` [Compound 7, (E)-3-benzylidene-chroman-4-one], for which the “erythrocyte morphology (in words)” value in the series on erythrocytes is recorded as “primarily led to echinocytosis, however single anisocytes could also be detected”. In series [1], this compound had a chromatographic logP of 4.23. Also, the concentration for half-maximal inhibition (IC50) in the series on NALM-6 cells came out at 6.83 ± 0.18 µM.

Values taken from paper PMC7180617, “Biological Evaluation of 3-Benzylidenechromanones and Their Spiropyrazolines-Based Analogues” (Molecules, 2020).
